From PubChem BioAssay (NCI)
“And” between values parts separate entries of the source, which are not always exact repeats. Equal entries are not always repeated.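 In this assay, cells in 96-well plates receive the compound at five concentrations for 48 hours. Endpoints are linearly interpolated between the surrounding concentrations. GI50 marks 50% less growth. TGI marks complete inhibition of growth.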

How the values were obtained:
Experiment in all cases: NCI-60 cell line screen, 48 h
[1] = system: HOP-62 NSCLC
[2] = system: RPMI-8226 leukemia
[3] = system: NCI-H23 lung
[4] = system: OVCAR-5 ovarian
[5] = system: MOLT-4 leukemia
[6] = system: OVCAR-4 ovarian
[7] = system: SK-MEL-2 melanoma
[8] = system: COLO 205 colon
[9] = system: LOX IMVI melanoma
[10] = system: SNB-75 CNS

Row | SMILES | GI50 [1] | TGI [1] | GI50 [2] | TGI [2] | GI50 [3] [µM] | TGI [3] | GI50 [4] [µM] | TGI [4] | GI50 [5] | TGI [5] | GI50 [6] | TGI [6] | GI50 [7] | TGI [7] | GI50 [8] | TGI [8] [µM] | GI50 [9] | TGI [9] | GI50 [10] [µM] | TGI [10]
1 | Cc1cccc(CNc2c3ccccc3nc3ccccc23)c1 | 3.14 µM | 16.1 µM | 1.87 µM | 4.94 µM | 1.63 | 4.22 µM | 1.92 | 6.81 µM | 3.06 µM | 11.3 µM | 1.74 µM | 5.59 µM | 1940 nM | 4.14 µM | 1690 nM | 3.89 | 1.49 µM | 2.9 µM | 1.08 | 8.32 µM
2 | COc1ccc(-c2cc(=O)c3c(O)c(O)c(OC)cc3o2)cc1O |  | > 100 µM |  | > 100 µM |  | > 100 µM |  | > 100 µM |  | > 100 µM |  | > 100 µM |  | > 100 µM |  | > 100 |  | > 100 µM |  | > 100 µM
3 | COc1ccc2c(=O)c(-c3cc(OC)c(OC)cc3OC)coc2c1 |  | > 100 µM |  | > 40.3 µM |  | > 100 µM |  | > 100 µM |  | > 100 µM |  | > 100 µM |  | > 100 µM |  | 42.6 |  | > 100 µM |  | 8.93 µM
4 | CCOC(=O)c1ccc(N=Cc2ccc(N(CCC#N)S(=O)(=O)c3ccccc3)cc2C)cc1 |  | > 100 µM |  | > 100 µM |  | > 100 µM |  | > 100 µM |  | > 100 µM |  | > 100 µM |  | > 100 µM |  | 52.9 |  | > 100 µM |  | > 100 µM
5 | CN(C)S(=O)(=O)c1cccc(C(=O)Nc2nc(-c3ccc(F)c(F)c3)cs2)c1 | 12.7 µM | > 100 µM | 4.51 µM | > 29.4 µM | 10.3 | > 100 µM | 98.4 | > 100 µM | 3.52 µM | > 55.2 µM | 4.62 µM | > 84.1 µM | 19400 nM | > 100 µM | 35600 nM | > 100 | 24 µM | > 100 µM | 4.96 | > 60.8 µM
6 | CN[C@@H](C)C(=O)N[C@H](C(=O)N1CCC[C@H]1c1nc(C(=O)c2ccc(F)cc2)cs1)C1CCCCC1 | 20 µM | > 65 µM | 16.6 µM | 55.4 µM | 11.2 | > 62.1 µM | 27 | > 78.9 µM | 20 µM | 57 µM | 0.51 µM | 13.9 µM | 2930 nM | 23.8 µM | 16500 nM | 31.9 | 19 µM | 37 µM | 4.31 | 20.9 µM
7 | O=C(NCCCN1CCN(CCCNC(=O)c2cccc3ccccc23)CC1)c1cccc2ccccc12 |  | > 100 µM |  | > 100 µM |  | > 100 µM |  | > 100 µM |  | > 100 µM |  | > 100 µM |  | > 100 µM |  | > 100 |  | > 100 µM |  | 41.7 µM
8 | COc1ccc(-c2nc(NC(=O)CS(=O)(=O)c3ccc(F)cc3)sc2C)cc1 | 22.4 µM | 87.1 µM | 17.6 µM | 56.5 µM | 27.9 | > 100 µM | 36 | > 100 µM | 14.5 µM | > 100 µM | 31 µM | > 100 µM | 15200 nM | 34.1 µM | 15300 nM | 30.6 | 19.2 µM | 42.6 µM | 9.45 | 60.9 µM
9 | CCN(Cc1cc(Cl)cc(C)c1O)Cc1c(O)ccc2ccccc12 |  | 26.4 µM |  | > 100 µM |  | 32.1 µM |  | 35.2 µM |  | 28 µM |  | 31.6 µM |  | 32.7 µM |  | 42 |  | 38.8 µM |  | 24.1 µM
10 | CCCC(=O)Oc1ccc(/C(=C(\C)c2ccc(Cl)cc2)c2ccc(OCCN(CC)CC)cc2)cc1 | 2.16 µM | 4.68 µM | 2.92 µM | 9.02 µM | 3.69 | 15.6 µM | 4.84 | 19.7 µM | 3.09 µM | 10.5 µM | 4.16 µM | 19.4 µM | 2830 nM | 5.93 µM | 1820 nM | 3.66 | 1.85 µM | 3.4 µM | 12.8 | 30.2 µM
11 | O=c1[nH]c2nc3ccccc3c(=O)n2nc1Cc1ccccc1 |  | > 100 µM |  | > 100 µM |  | > 100 µM |  | > 100 µM |  | > 100 µM |  | > 100 µM |  | > 100 µM |  | > 100 |  | > 100 µM |  | > 100 µM
12 | O=C1c2ccccc2C(=O)c2c1ccc1conc21 |  | 9.11 µM |  | 3.85 µM |  | 3.3 µM |  | 6.93 µM |  | 6.25 µM |  | 2.02 µM |  | 7.14 µM |  | 12.3 |  | 1.78 µM |  | 20.5 µM
13 | CN(C)Cc1ccc(NC(=O)c2cncc(C#Cc3cnc(N)c4ncccc34)c2)cc1C(F)(F)F | 1.57 µM | 3.48 µM | 1.24 µM | 3.58 µM | 1.25 | 2.68 µM | 1.27 | 2.6 µM | 0.701 µM | 2.75 µM | 1.16 µM | 2.56 µM | 1560 nM | 27 µM | 293 nM | 14 | 0.994 µM | 2.24 µM | 1.69 | 3.09 µM
14 | O=C1OC(c2ccc([N+](=O)[O-])cc2)=N/C1=C\c1ccc(Cl)cc1 |  | > 100 µM |  | > 100 µM |  | > 100 µM |  | > 100 µM |  | > 100 µM |  | > 100 µM |  | > 100 µM |  | > 100 |  | > 100 µM |  | > 100 µM
15 | CC(C)(C)OC(=O)NCCCCCCCCCn1c2c(c3ccccc3c1=O)C(=O)c1ccccc1-2 | 24.8 µM | 71.6 µM | > 100 µM | > 100 µM | 37 | > 100 µM | > 100 | > 100 µM | > 100 µM | > 100 µM | > 100 µM | > 100 µM | 27900 nM | 71.1 µM | > 100000 nM | > 100 | 76.3 µM | > 100 µM | 11.2 | 36.8 µM
16 | O=C(O)/C=C/c1c2ccc(=O)c(O)c-2oc2c(O)c(O)ccc12 |  | 61.1 µM |  | 55.9 µM |  | > 100 µM |  | > 100 µM |  | 49.2 µM |  | > 100 µM |  | > 100 µM |  | > 100 |  | 62.2 µM |  | > 100 µM
17 | Nc1c(C(=O)c2cccc(-c3cccnc3)c2)cnn1-c1ccc(F)cc1 | > 17.3 µM | > 25 µM | > 25 µM | > 25 µM | > 25 | > 25 µM | > 25 | > 25 µM | > 25 µM | > 25 µM | > 16.3 µM | > 25 µM | > 25000 nM | > 25 µM | > 25000 nM | > 25 | > 25 µM | > 25 µM | > 12.6 | > 25 µM
18 | Cc1cc(NC(=O)NCCOc2ccc(N3C(N)=NC(N)=NC3(C)C)cc2Cl)ccc1S(=O)(=O)F | 8.36 µM | > 73.2 µM | 3.46 µM | > 55 µM | 2.76 | > 100 µM | 1.44 | > 100 µM | 4.31 µM | > 100 µM | 2.75 µM | > 77.5 µM | 5290 nM | 27.1 µM | 1400 nM | 30.4 | 0.74 µM | > 100 µM | 1.53 | 48.3 µM
19 | COc1ccc(-n2nc(C)c3c(Nc4ccc(NC(=O)Nc5cccc(C(F)(F)F)c5)cc4)ncnc32)cc1 | 1.73 µM | 3.45 µM | 1.78 µM | 4.69 µM | 1.68 | 3.68 µM | 1.76 | 4.12 µM | 2.01 µM | 6.16 µM | 2.1 µM | 5.27 µM | 2040 nM | 4.01 µM | 1650 nM | 3.49 | 1.3 µM | 2.65 µM | 0.87 | 3.03 µM
20 | COc1ccc2[nH]c3c(C)c4c(c(C)c3c2c1)CN(C)C=C4 |  | 3.53 µM |  | 61.9 µM |  | 3.28 µM |  | 47 µM |  | 37.7 µM |  | 18.2 µM |  | 9.8 µM |  | 10.3 |  | 28.1 µM |  | 0.698 µM
21 | NC(CSC(c1ccccc1)(c1ccccc1)c1ccccc1)C(=O)O (stereo not drawn) | 19.3 µM and 4.5 µM | 63 µM and > 100 µM | 3.53 µM and 0.501 µM | 37.3 µM and 22.4 µM and 20.7 µM |  | 7.15 µM and 51.7 µM | 4.28 | 89.4 µM and > 100 µM | 7.54 µM and 5.01 µM | 83.8 µM and 15.9 µM and > 100 µM | 11.6 µM and 11.2 µM | 61 µM and > 100 µM | 1510 nM and 886 nM | 5.34 µM and 9.72 µM and 5.63 µM | 3270 nM and 1340 nM |  | 6.26 µM and 4.14 µM | 24.3 µM and > 100 µM | 2.34 | 9.45 µM and 50.6 µM and 29.2 µM
22 | CCN1C(=O)N(CC)C2C1NN=c1s/c(=C3\C(=O)Nc4ccccc43)c(=O)n12 (stereo not drawn) | 0.734 µM | 25.8 µM | 0.306 µM | 6.06 µM | 0.752 | 24 µM | 2.31 | > 100 µM | 0.549 µM | > 100 µM | > 59.1 µM | > 100 µM | 1340 nM | 30 µM | 445 nM | > 57.5 | 0.625 µM | 29.2 µM | < 0.0447 | 0.429 µM
